Values joined by “and” are separate entries in the source; they are usually repeats but may differ in a detail not shown here. Identical values can stand only once. One block for each compound: values may come before it.
System: 786-0 complex spheroid viability
Assay: Anticancer human tumor 786-0 cell line growth inhibition;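 further: spheroids exposed to agents for seven days before readout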
Details: for viability, T/C: stronger effect = lower value
Outline: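 Multicellular complex spheroids of tumor cells with human endothelial cells (HUVEC) and mesenchymal stem cells; the LSD1 inhibitor iadademstat was combined with standard-of-care or investigational agents. Top concentration at or near clinical Cmax, half-log dilutions; final DMSO ≤0.25%.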

[1] = curve of first compound, second compound 0.1 µM
[2] = curve of first compound, second compound 0.316 µM
[3] = curve of first compound, second compound 1 µM
[4] = curve of first compound, second compound 3.16 µM
[5] = curve of first compound, second compound 10 µM
[6] = second compound 0.1 µM, first compound 0.00316 µM
[7] = second compound 0.1 µM, first compound 0.01 µM
[8] = second compound 0.1 µM, first compound 0.0316 µM
[9] = second compound 0.1 µM, first compound 0.1 µM
[10] = second compound 0.1 µM, first compound 0.316 µM
[11] = second compound 0.1 µM, first compound 1 µM
[12] = second compound 0.316 µM, first compound 0.00316 µM
[13] = second compound 0.316 µM, first compound 0.01 µM
[14] = second compound 0.316 µM, first compound 0.0316 µM
[15] = second compound 0.316 µM, first compound 0.1 µM
[16] = second compound 0.316 µM, first compound 0.316 µM
[17] = second compound 0.316 µM, first compound 1 µM
[18] = second compound 1 µM, first compound 0.00316 µM
[19] = second compound 1 µM, first compound 0.01 µM
[20] = second compound 1 µM, first compound 0.0316 µM
[21] = second compound 1 µM, first compound 0.1 µM
[22] = second compound 1 µM, first compound 0.316 µM
[23] = second compound 1 µM, first compound 1 µM
[24] = second compound 3.16 µM, first compound 0.00316 µM
[25] = second compound 3.16 µM, first compound 0.01 µM
[26] = second compound 3.16 µM, first compound 0.0316 µM
[27] = second compound 3.16 µM, first compound 0.1 µM
[28] = second compound 3.16 µM, first compound 0.316 µM
[29] = second compound 3.16 µM, first compound 1 µM
[30] = second compound 10 µM, first compound 0.00316 µM
[31] = second compound 10 µM, first compound 0.01 µM
[32] = second compound 10 µM, first compound 0.0316 µM
[33] = second compound 10 µM, first compound 0.1 µM
[34] = second compound 10 µM, first compound 0.316 µM
[35] = second compound 10 µM, first compound 1 µM
[36] = second compound 0.1 µM, first compound 0.000316 µM
[37] = second compound 0.1 µM, first compound 0.001 µM
[38] = second compound 0.316 µM, first compound 0.000316 µM
[39] = second compound 0.316 µM, first compound 0.001 µM
[40] = second compound 1 µM, first compound 0.000316 µM
[41] = second compound 1 µM, first compound 0.001 µM
[42] = second compound 3.16 µM, first compound 0.000316 µM
[43] = second compound 3.16 µM, first compound 0.001 µM
[44] = second compound 10 µM, first compound 0.000316 µM
[45] = second compound 10 µM, first compound 0.001 µM

SMILES: Nc1ncn(C2CC(O)C(CO)O2)c(=O)n1 (stereo not drawn) + NC1CC1c1ccc(-c2cccc(O)c2)cc1
IC50 [1]: > 1000 nM
IC50 [2]: > 1000 nM
IC50 [3]: > 1000 nM
IC50 [4]: > 1000 nM
IC50 [5]: > 1000 nM
viability, T/C [6]: 119%
viability, T/C [7]: 122%
viability, T/C [8]: 107%
viability, T/C [9]: 97%
viability, T/C [10]: 99.1%
viability, T/C [11]: 78.4%
viability, T/C [12]: 125%
viability, T/C [13]: 113%
viability, T/C [14]: 107%
viability, T/C [15]: 96.5%
viability, T/C [16]: 88.8%
viability, T/C [17]: 82.3%
viability, T/C [18]: 122%
viability, T/C [19]: 119%
viability, T/C [20]: 107%
viability, T/C [21]: 96.1%
viability, T/C [22]: 90.9%
viability, T/C [23]: 82.5%
viability, T/C [24]: 113%
viability, T/C [25]: 115%
viability, T/C [26]: 95.7%
viability, T/C [27]: 94.8%
viability, T/C [28]: 84%
viability, T/C [29]: 75.6%
viability, T/C [30]: 108%
viability, T/C [31]: 102%
viability, T/C [32]: 97.1%
viability, T/C [33]: 93%
viability, T/C [34]: 78.3%
viability, T/C [35]: 72.9%

SMILES: Nc1ncn(C2CC(O)C(CO)O2)c(=O)n1 (stereo not drawn)
viability, T/C (compound 0.00316 µM): 101% and 107%
viability, T/C (compound 0.01 µM): 92.9% and 108%
viability, T/C (compound 0.0316 µM): 87.4% and 97.4%
viability, T/C (compound 0.1 µM): 77.8% and 93.8%
viability, T/C (compound 0.316 µM): 68.4% and 82.3%
viability, T/C (compound 1 µM): 53.7% and 76.3%
IC50 (curve of compound): > 1000 nM

SMILES: CC1(C)CCC(CN2CCN(c3ccc(C(=O)NS(=O)(=O)c4ccc(NCC5CCOCC5)c([N+](=O)[O-])c4)c(Oc4cnc5[nH]ccc5c4)c3)CC2)=C(c2ccc(Cl)cc2)C1 + NC1CCC(NC2CC2c2ccccc2)CC1
IC50 [1]: > 10000 nM
IC50 [2]: > 10000 nM
IC50 [3]: > 10000 nM
IC50 [4]: 9290 nM
IC50 [5]: 6260 nM
viability, T/C [8]: 113%
viability, T/C [9]: 117%
viability, T/C [10]: 110%
viability, T/C [11]: 116%
viability, T/C (second compound 0.1 µM, first compound 3.16 µM): 103%
viability, T/C (second compound 0.1 µM, first compound 10 µM): 68.1%
viability, T/C [14]: 117%
viability, T/C [15]: 121%
viability, T/C [16]: 120%
viability, T/C [17]: 120%
viability, T/C (second compound 0.316 µM, first compound 3.16 µM): 106%
viability, T/C (second compound 0.316 µM, first compound 10 µM): 67.1%
viability, T/C [20]: 116%
viability, T/C [21]: 116%
viability, T/C [22]: 118%
viability, T/C [23]: 108%
viability, T/C (second compound 1 µM, first compound 3.16 µM): 104%
viability, T/C (second compound 1 µM, first compound 10 µM): 58.3%
viability, T/C [26]: 110%
viability, T/C [27]: 109%
viability, T/C [28]: 107%
viability, T/C [29]: 96%
viability, T/C (second compound 3.16 µM, first compound 3.16 µM): 85.3%
viability, T/C (second compound 3.16 µM, first compound 10 µM): 47.4%
viability, T/C [32]: 90.2%
viability, T/C [33]: 94.6%
viability, T/C [34]: 89.3%
viability, T/C [35]: 74.1%
viability, T/C (second compound 10 µM, first compound 3.16 µM): 63.2%
viability, T/C (second compound 10 µM, first compound 10 µM): 41.8%

SMILES: CC(C)CC(NC(=O)C(Cc1ccccc1)NC(=O)c1cnccn1)B(O)O (stereo not drawn) + NC1CCC(NC2CC2c2ccccc2)CC1
IC50 [1]: 2.81 nM
IC50 [2]: 2.56 nM
IC50 [3]: 2.56 nM
IC50 [4]: 2.25 nM
IC50 [5]: 1.95 nM
viability, T/C [36]: 122%
viability, T/C [37]: 114%
viability, T/C [6]: 42.6%
viability, T/C [7]: 2.11%
viability, T/C [8]: 0.17%
viability, T/C [9]: 0.14%
viability, T/C [38]: 115%
viability, T/C [39]: 110%
viability, T/C [12]: 36.6%
viability, T/C [13]: 3.06%
viability, T/C [14]: 0.46%
viability, T/C [15]: 0.16%
viability, T/C [40]: 117%
viability, T/C [41]: 113%
viability, T/C [18]: 35.9%
viability, T/C [19]: 6.05%
viability, T/C [20]: 0.96%
viability, T/C [21]: 0.23%
viability, T/C [42]: 106%
viability, T/C [43]: 102%
viability, T/C [24]: 28.2%
viability, T/C [25]: 5.87%
viability, T/C [26]: 0.76%
viability, T/C [27]: 0.29%
viability, T/C [44]: 92.1%
viability, T/C [45]: 86.1%
viability, T/C [30]: 24%
viability, T/C [31]: 3.66%
viability, T/C [32]: 1.18%
viability, T/C [33]: 0.23%

SMILES: CC(C)CC(NC(=O)C(Cc1ccccc1)NC(=O)c1cnccn1)B(O)O (stereo not drawn) + NC1CC1c1ccc(-c2cccc(O)c2)cc1
IC50 [1]: 3.71 nM
IC50 [2]: 3.52 nM
IC50 [3]: 3.41 nM
IC50 [4]: 3.23 nM
IC50 [5]: 2.35 nM
viability, T/C [36]: 114%
viability, T/C [37]: 110%
viability, T/C [6]: 55.5%
viability, T/C [7]: 11.2%
viability, T/C [8]: 1.11%
viability, T/C [9]: 0.47%
viability, T/C [38]: 114%
viability, T/C [39]: 111%
viability, T/C [12]: 53.5%
viability, T/C [13]: 9.41%
viability, T/C [14]: 1.04%
viability, T/C [15]: 0.33%
viability, T/C [40]: 114%
viability, T/C [41]: 109%
viability, T/C [18]: 51.8%
viability, T/C [19]: 10.7%
viability, T/C [20]: 1.17%
viability, T/C [21]: 0.5%
viability, T/C [42]: 105%
viability, T/C [43]: 110%
viability, T/C [24]: 50.4%
viability, T/C [25]: 9.96%
viability, T/C [26]: 1.23%
viability, T/C [27]: 0.53%
viability, T/C [44]: 102%
viability, T/C [45]: 99.6%
viability, T/C [30]: 32.9%
viability, T/C [31]: 6.5%
viability, T/C [32]: 0.86%
viability, T/C [33]: 0.34%

SMILES: Nc1ccccc1NC(=O)c1ccc(CNC(=O)OCc2cccnc2)cc1
viability, T/C (compound 0.00949 µM): 98.3% and 104%
viability, T/C (compound 0.03 µM): 103% and 113%
viability, T/C (compound 0.0949 µM): 102% and 108%
viability, T/C (compound 0.3 µM): 93.9% and 93.5%
viability, T/C (compound 0.949 µM): 68% and 73.5%
viability, T/C (compound 3 µM): 14.8% and 23%
IC50 (curve of compound): 1400 nM and 1610 nM

SMILES: CCc1c2c(nc3ccc(O)cc13)-c1cc3c(c(=O)n1C2)COC(=O)[C@]3(O)CC
viability, T/C (compound 0.000949 µM): 6% and 6.39%
viability, T/C (compound 0.003 µM): 4.1% and 4.99%
viability, T/C (compound 0.00949 µM): 3.66% and 5.52%
viability, T/C (compound 0.03 µM): 3.36% and 6.78%
viability, T/C (compound 0.0949 µM): 4.94% and 9.67%
viability, T/C (compound 0.3 µM): 3.44% and 9.65%
IC50 (curve of compound): < 0.949 nM

More lines, main results first:

IC50 (curve of compound): 18.5 nM and 27.6 nM
SMILES: O=C(C=Cn1cnc(-c2cc(C(F)(F)F)cc(C(F)(F)F)c2)n1)NNc1cnccn1
viability, T/C (compound 0.00316 µM): 90.7% and 92.3%
viability, T/C (compound 0.01 µM): 61.1% and 63.3%
viability, T/C (compound 0.0316 µM): 39.5% and 47.2%
viability, T/C (compound 0.1 µM): 29% and 39.9%
viability, T/C (compound 0.316 µM): 20.6% and 32.5%
viability, T/C (compound 1 µM): 15.3% and 25.6%

IC50 (compound alone, run of 11/29/2021): > 10000 nM
SMILES: NC1CCC(NC2CC2c2ccccc2)CC1 (stereo not drawn)
viability, T/C (compound 0.1 µM): 114% [middle of 25 runs]
viability, T/C (compound 0.316 µM): 113% and 132%
viability, T/C (compound 1 µM): 112% [middle of 25 runs]
viability, T/C (compound 3.16 µM): 106% [middle of 25 runs]
viability, T/C (compound 10 µM): 85.4% [middle of 23 runs]

IC50 (curve of compound): 241 nM and 396 nM
SMILES: COc1cc(C2c3cc4c(cc3C(OC3OC5COC(C)OC5C(O)C3O)C3COC(=O)C23)OCO4)cc(OC)c1O (stereo not drawn)
viability, T/C (compound 0.00949 µM): 103% and 96%
viability, T/C (compound 0.03 µM): 96.4% and 94.6%
viability, T/C (compound 0.0949 µM): 63.6% and 72.1%
viability, T/C (compound 0.3 µM): 49.5% and 53.4%
viability, T/C (compound 0.949 µM): 23.1% and 38.4%
viability, T/C (compound 3 µM): 11.1% and 21.9%

IC50 (curve of compound): 164 nM and 280 nM
SMILES: Nc1ncn(C2CC(O)C(CO)S2)c(=O)n1 (stereo not drawn)
viability, T/C (compound 0.000949 µM): 110% and 99.7%
viability, T/C (compound 0.003 µM): 109% and 112%
viability, T/C (compound 0.00949 µM): 117% and 112%
viability, T/C (compound 0.03 µM): 103% and 102%
viability, T/C (compound 0.0949 µM): 67.7% and 83.2%
viability, T/C (compound 0.3 µM): 30.5% and 47.9%

From PubChem BioAssay AID1918944 (Molecular Pharmacology Branch, DTP, NCI, 2023)
